The values below are quoted from earlier work in US20230190668A1, “SLOW-RELEASE MEDICAL PLASTER” (FIDIA FARMACEUTICI S.P.A., priority 2020, published 2023).

For the data set the following is noted: same matrix, active ingredient amount and excipients, 24 hours, without BHA.

Structures are written as SMILES. Counter-ions that a name gives are not always drawn. Like-named read-outs stand apart in the source and are kept apart here.

On to `O=C(O)Cc1ccccc1Nc1c(Cl)cccc1Cl` [diclofenac DEA salt, diclofenac diethylammonium salt], for which the “release from medical plaster with PSA matrix of Eudragit NE40 and citric acid ester” value was “released in a constant, continuous, prolonged and therapeutically effective way for 24 hours”.

Turning to `O=C(O)Cc1ccccc1Nc1c(Cl)cccc1Cl` [diclofenac sodium salt], the “release from medical plaster with PSA matrix of Eudragit NE40 and citric acid ester” value (sodium salt) was “released in a minimal way”.
